Experimental findings from US20070027150A1 (priority 2005, published 2007) are described below.

Molecules are shown by their SMILES.

In the assay the target is His-tagged N-terminal ATP binding domain (amino acid residues 9-236) of HSP90α (Homo sapiens, UniProt P07900). Briefly: HSP90 inhibitor binding potency: TRF competition binding assay. Particulars: Table I; read-out: Hsp90 IC50 Range. The procedure:
HSP90 Inhibitor Binding Potency: TRF Binding Assay
In this example, the binding potency of HSP90 inhibitors as measured by a TRF binding assay is described.
TRF competition binding assays were performed to determine the binding potency (IC50 values) of HSP90 inhibitors. Purified His-tagged N-terminal ATP binding domain (amino acid residues 9-236) of HSP90α (HSP90α GeneID: 3320; mRNA Sequence NM_005348) was incubated for two hours at room temperature in binding buffer (50 mM HEPES, 6 mM MgCl2, 20 mM KCl and 0.1% BSA) with biotinylated radicicol and progressively higher concentrations of the competing compounds. A fraction of the mixture was transferred to capture plates (coated with streptavidin) and incubated for one hour at room temperature. After washing with DELFIA wash buffer, europium-labeled anti-his antibody was added and incubated for two hours at room temperature, followed by washing with DELFIA buffer. DELFIA enhancement solution was then added. After gentle shaking for 10 minutes, the plates were read in VICTOR for europium counts.
On to `COc1ccc(-c2cccnc2)c(C2CC(=O)c3c(C)nc(N)nc3C2)c1` (stereo not drawn) [Compound 71, 2-amino-7-(5-methoxy-2-pyridin-3-ylphenyl)-4-methyl-7,8-dihydroquinazolin-5(6H)-one], for which the IC50 – broadly, the concentration that inhibits the measured activity by half – was < 1 µM.
With `COc1ccncc1-c1ccccc1C1CC(=O)c2c(C)nc(N)nc2C1` (stereo not drawn) [Compound 72, 2-amino-7-[2-(4-methoxypyridin-3-yl)phenyl]-4-methyl-7,8-dihydroquinazolin-5(6H)-one], the half-maximal inhibitory concentration (IC50) lay within 1 to 10 µM.
Turning to `COc1cncc(-c2ccccc2C2CC(=O)c3c(C)nc(N)nc3C2)c1` (stereo not drawn) [Compound 73, 2-amino-7-[2-(5-methoxypyridin-3-yl)phenyl]-4-methyl-7,8-dihydroquinazolin-5(6H)-one], the IC50 lay within 1 to 10 µM.
The same measure for `COc1ccc(-c2ccccc2C2CC(=O)c3c(C)nc(N)nc3C2)cn1` (stereo not drawn) [Compound 74, 2-amino-7-[2-(6-methoxypyridin-3-yl)phenyl]-4-methyl-7,8-dihydroquinazolin-5(6H)-one]: 1 to 10 µM; for `COc1ccc(-c2cncnc2)c(C2CC(=O)c3c(C)nc(N)nc3C2)c1` (stereo not drawn) [Compound 75, 2-amino-7-(5-methoxy-2-pyrimidin-5-ylphenyl)-4-methyl-7,8-dihydroquinazolin-5(6H)-one]: 1 to 10 µM; for `Cc1ccc(F)c(-c2ccccc2C2CC(=O)c3c(C)nc(N)nc3C2)c1` (stereo not drawn) [Compound 76, 2-amino-7-(2′-fluoro-5′-methyl-1,1′-biphenyl-2-yl)-4-methyl-7,8-dihydroquinazolin-5(6H)-one]: < 1 µM.
Turning to `Cc1ccc(-c2ccccc2C2CC(=O)c3c(C)nc(N)nc3C2)c(F)c1` (stereo not drawn) [Compound 77, 2-amino-7-(2′-fluoro-4′-methyl-1,1′-biphenyl-2-yl)-4-methyl-7,8-dihydroquinazolin-5(6H)-one], the IC50 was < 1 µM.
Regarding `COc1cccc(C2=CCCCC2)c1C1CC(=O)c2c(C)nc(N)nc2C1` (stereo not drawn) [Compound 78, 2-amino-7-(2-cyclohex-1-en-1-yl-6-methoxyphenyl)-4-methyl-7,8-dihydroquinazolin-5(6H)-one], the IC50 was < 1 µM.
For the compound `Cc1nc(N)nc2c1C(=O)CC(c1ccccc1-c1ccccc1Cl)C2` (stereo not drawn) [Compound 79, 2-amino-7-(2′-chloro-1,1′-biphenyl-2-yl)-4-methyl-7,8-dihydroquinazolin-5(6H)-one], the IC50 was < 1 µM.
With `Cc1nc(N)nc2c1C(=O)CC(c1ccccc1-c1cccnc1Cl)C2` (stereo not drawn) [Compound 80, 2-amino-7-[2-(2-chloropyridin-3-yl)phenyl]-4-methyl-7,8-dihydroquinazolin-5(6H)-one], the IC50 is < 1 µM.
`Cc1nc(N)nc2c1C(=O)CC(c1ccccc1-c1cnccc1Cl)C2` (stereo not drawn) [Compound 81, 2-amino-7-[2-(4-chloropyridin-3-yl)phenyl]-4-methyl-7,8-dihydroquinazolin-5(6H)-one]: the IC50 was < 1 µM.
The same measure for `Cc1nc(N)nc2c1C(=O)CC(c1ccccc1-c1ccnc(Cl)c1)C2` (stereo not drawn) [Compound 82, 2-amino-7-[2-(2-chloropyridin-4-yl)phenyl]-4-methyl-7,8-dihydroquinazolin-5(6H)-one]: 1 to 10 µM.
With `Cc1nc(N)nc2c1C(=O)CC(c1ccccc1-c1cccc(F)c1F)C2` (stereo not drawn) [Compound 83, 2-amino-7-(2′,3′-difluoro-1,1′-biphenyl-2-yl)-4-methyl-7,8-dihydroquinazolin-5(6H)-one], the half-inhibitory concentration (IC50) was < 1 µM.
As to `Cc1nc(N)nc2c1C(=O)CC(c1ccccc1-c1ccc(F)cc1F)C2` (stereo not drawn) [Compound 84, 2-amino-7-(2′,4′-difluoro-1,1′-biphenyl-2-yl)-4-methyl-7,8-dihydroquinazolin-5(6H)-one], the concentration for half-maximal inhibition (IC50) was < 1 µM.
The same measure for `Cc1nc(N)nc2c1C(=O)CC(c1ccccc1-c1c(F)cccc1F)C2` (stereo not drawn) [Compound 85, 2-amino-7-(2′,6′-difluoro-1,1′-biphenyl-2-yl)-4-methyl-7,8-dihydroquinazolin-5(6H)-one]: < 1 µM.
With `Cc1nc(N)nc2c1C(=O)CC(c1ccc(F)cc1-c1ccccc1F)C2` (stereo not drawn) [Compound 86, 2-amino-7-(5,2′-difluoro-biphenyl-2-yl)-4-methyl-7,8-dihydro-6H-quinazolin-5-one], the IC50 was < 1 µM.
As to `Cc1nc(N)nc2c1C(=O)CC(c1ccc(F)cc1-c1cccnc1F)C2` (stereo not drawn) [Compound 87, 2-amino-7-[4-fluoro-2-(2-fluoropyridin-3-yl)phenyl]-4-methyl-7,8-dihydroquinazolin-5(6H)-one], the IC50 is < 1 µM.
For the compound `Cc1nc(N)nc2c1C(=O)CC(c1cc(F)ccc1-c1cccnc1F)C2` (stereo not drawn) [Compound 88, 2-amino-7-[5-fluoro-2-(2-fluoropyridin-3-yl)phenyl]-4-methyl-7,8-dihydroquinazolin-5(6H)-one], the IC50 was < 1 µM.
The same measure for `Cc1nc(N)nc2c1C(=O)CC(c1ccc(F)cc1-c1cccc(F)n1)C2` (stereo not drawn) [Compound 89, 2-amino-7-[4-fluoro-2-(6-fluoro-pyridin-2-yl)-phenyl]-4-methyl-7,8-dihydro-6H-quinazolin-5-one]: < 1 µM.
On to `Cc1nc(N)nc2c1C(=O)CC(c1ccccc1-c1ccccc1C(N)=O)C2` (stereo not drawn) [Compound 90, 2′-(2-amino-4-methyl-5-oxo-5,6,7,8-tetrahydroquinazolin-7-yl)-1,1′-biphenyl-2-carboxamide], for which the IC50 is < 1 µM.
The same measure for `Cc1nc(N)nc2c1C(=O)CC(c1ccccc1-c1cccc(C(N)=O)c1)C2` (stereo not drawn) [Compound 91, 2′-(2-amino-4-methyl-5-oxo-5,6,7,8-tetrahydroquinazolin-7-yl)-1,1′-biphenyl-3-carboxamide]: 1 to 10 µM; for `CC(=O)c1cccc(-c2ccccc2C2CC(=O)c3c(C)nc(N)nc3C2)n1` (stereo not drawn) [Compound 92, 7-[2-(6-acetylpyridin-2-yl)phenyl]-2-amino-4-methyl-7,8-dihydroquinazolin-5(6H)-one]: 1 to 10 µM; for `Cc1nc(N)nc2c1C(=O)CC(c1ccccc1-c1cccc(N(C)C)c1)C2` (stereo not drawn) [Compound 93, 2-amino-7-[3′-(dimethylamino)-1,1′-biphenyl-2-yl]-4-methyl-7,8-dihydroquinazolin-5(6H)-one]: > 10 µM.
Regarding `CCOc1cccc(-c2ccccc2C2CC(=O)c3c(C)nc(N)nc3C2)n1` (stereo not drawn) [Compound 94, 2-amino-7-[2-(6-ethoxy-pyridin-2-yl)-phenyl]-4-methyl-7,8-dihydro-6H-quinazolin-5-one], the IC50 was in the range of 1 to 10 µM.
The same measure for `COc1ccccc1-c1cc(F)ccc1C1CC(=O)c2c(C)nc(N)nc2C1` (stereo not drawn) [Compound 95, 2-amino-7-(5-fluoro-2′-methoxy-biphenyl-2-yl)-4-methyl-7,8-dihydro-6H-quinazolin-5-one]: < 1 µM.
On to `COc1ccc(F)cc1-c1ccccc1C1CC(=O)c2c(C)nc(N)nc2C1` (stereo not drawn) [Compound 96, 2-amino-7-(5′-fluoro-2′-methoxy-1,1′-biphenyl-2-yl)-4-methyl-7,8-dihydroquinazolin-5(6H)-one], for which the IC50 was < 1 µM.
As for `COc1cccc(-c2cccnc2F)c1C1CC(=O)c2c(C)nc(N)nc2C1` (stereo not drawn) [Compound 97, 2-amino-7-[2-(2-fluoropyridin-3-yl)-6-methoxyphenyl]-4-methyl-7,8-dihydroquinazolin-5(6H)-one], the IC50 is < 1 µM.
For `COc1ccc(-c2cccnc2F)c(C2CC(=O)c3c(C)nc(N)nc3C2)c1` (stereo not drawn) [Compound 98, 2-amino-7-[2-(2-fluoropyridin-3-yl)-5-methoxyphenyl]-4-methyl-7,8-dihydroquinazolin-5(6H)-one], the IC50 is < 1 µM.
Take `COc1ncccc1-c1cc(F)ccc1C1CC(=O)c2c(C)nc(N)nc2C1` (stereo not drawn) [Compound 99, 2-amino-7-[4-fluoro-2-(2-methoxy-pyridin-3-yl)-phenyl]-4-methyl-7,8-dihydro-6H-quinazolin-5-one]: the IC50 was < 1 µM.
In the case of `Cc1nc(N)nc2c1C(=O)CC(c1ccccc1-c1cncc3ccccc13)C2` (stereo not drawn) [Compound 100, 2-amino-7-(2-isoquinolin-4-ylphenyl)-4-methyl-7,8-dihydroquinazolin-5(6H)-one], the IC50 was in the range of 1 to 10 µM.
Turning to `Cc1nc(N)nc2c1C(=O)CC(c1ccccc1-c1cc(F)cnc1Cl)C2` (stereo not drawn) [Compound 101, 2-amino-7-[2-(2-chloro-5-fluoropyridin-3-yl)phenyl]-4-methyl-7,8-dihydroquinazolin-5(6H)-one], the IC50 is < 1 µM.
On to `CC(=O)Nc1cccc(-c2ccccc2C2CC(=O)c3c(C)nc(N)nc3C2)c1` (stereo not drawn) [Compound 102, N-[2′-(2-amino-4-methyl-5-oxo-5,6,7,8-tetrahydroquinazolin-7-yl)-1,1′-biphenyl-3-yl]acetamide], for which the concentration for half-maximal inhibition (IC50) fell in the range of 1 to 10 µM.
In the case of `CC(=O)Nc1ccccc1-c1ccccc1C1CC(=O)c2c(C)nc(N)nc2C1` (stereo not drawn) [Compound 103, N-[2′-(2-amino-4-methyl-5-oxo-5,6,7,8-tetrahydroquinazolin-7-yl)-1,1′-biphenyl-2-yl]acetamide], the IC50 lay within 1 to 10 µM.
As for `COC(=O)c1cccc(-c2ccccc2C2CC(=O)c3c(C)nc(N)nc3C2)c1` (stereo not drawn) [Compound 104, methyl 2′-(2-amino-4-methyl-5-oxo-5,6,7,8-tetrahydroquinazolin-7-yl)-1,1′-biphenyl-3-carboxylate], the IC50 is > 10 µM.
Turning to `COc1cccc(-c2ccccc2CO)c1C1CC(=O)c2c(C)nc(N)nc2C1` (stereo not drawn) [Compound 105, 2-amino-7-[2′-(hydroxymethyl)-3-methoxy-1,1′-biphenyl-2-yl]-4-methyl-7,8-dihydroquinazolin-5(6H)-one], the concentration for half-maximal inhibition (IC50) was < 1 µM.
The same measure for `COc1cccc(-c2ccccc2CO)c1C1CC(=O)c2c(C)nc(N)nc2C1` (stereo not drawn) [Compound 106, 2-amino-7-[2′-(hydroxymethyl)-3-methoxy-1,1′-biphenyl-2-yl]-4-methyl-7,8-dihydroquinazolin-5(6H)-one]: < 1 µM.
